Paper PMC3767936 (Journal of cellular biochemistry, 2010)

Biological target: T1, 20S proteasome (chymotrypsin-like activity) (Oryctolagus cuniculus, UniProt G1T4Q9)
T1 sequence (G1T4Q9 1-263): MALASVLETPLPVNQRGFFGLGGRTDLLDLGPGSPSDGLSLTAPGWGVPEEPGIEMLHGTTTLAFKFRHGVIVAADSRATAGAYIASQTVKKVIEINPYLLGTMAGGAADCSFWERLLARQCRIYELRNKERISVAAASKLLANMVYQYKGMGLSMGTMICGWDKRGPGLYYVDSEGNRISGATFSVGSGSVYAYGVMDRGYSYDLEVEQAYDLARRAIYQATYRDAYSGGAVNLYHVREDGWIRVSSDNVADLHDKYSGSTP
Assay: fluorogenic Suc-LLVY-AMC hydrolysis by purified […] proteasome, […] h at […]°C
Format: biochemical

`CCOC(=O)CN(C)C1=[S+][Au-]([Br])([Br])[S]1` [AUL12, [AuBr2(ESDT)]] showed an IC50 of 1130 nM.
